Earlier results on one substance are cited in patent publication US20140112913A1, “METHODS OF PROGNOSING AND ADMINISTERING TREATMENT FOR INFLAMMATORY DISORDERS” (Genqual Corporation, priority 2011, published 2014).

The conditions of this data set: treatment of rheumatoid arthritis; patients who failed adequate treatment with other approved therapies.

Consider “Actemra: anti-IL-6 humanized mAb against soluble and cellular IL-6 receptor”, for which the “failure rate due to side effects or lack of efficacy” value is “around one-third”.
